Experimental findings from patent US10794932B2, “Biosensor for the detection of a biological target, and method for manufacturing the same” (The Governing Council of The University of Toronto, priority 2016, dated 2020) are described below.

One assay has as its target T1, TLR1 (Mus musculus, UniProt Q9EPQ1).
T1 sequence (Q9EPQ1 26-795): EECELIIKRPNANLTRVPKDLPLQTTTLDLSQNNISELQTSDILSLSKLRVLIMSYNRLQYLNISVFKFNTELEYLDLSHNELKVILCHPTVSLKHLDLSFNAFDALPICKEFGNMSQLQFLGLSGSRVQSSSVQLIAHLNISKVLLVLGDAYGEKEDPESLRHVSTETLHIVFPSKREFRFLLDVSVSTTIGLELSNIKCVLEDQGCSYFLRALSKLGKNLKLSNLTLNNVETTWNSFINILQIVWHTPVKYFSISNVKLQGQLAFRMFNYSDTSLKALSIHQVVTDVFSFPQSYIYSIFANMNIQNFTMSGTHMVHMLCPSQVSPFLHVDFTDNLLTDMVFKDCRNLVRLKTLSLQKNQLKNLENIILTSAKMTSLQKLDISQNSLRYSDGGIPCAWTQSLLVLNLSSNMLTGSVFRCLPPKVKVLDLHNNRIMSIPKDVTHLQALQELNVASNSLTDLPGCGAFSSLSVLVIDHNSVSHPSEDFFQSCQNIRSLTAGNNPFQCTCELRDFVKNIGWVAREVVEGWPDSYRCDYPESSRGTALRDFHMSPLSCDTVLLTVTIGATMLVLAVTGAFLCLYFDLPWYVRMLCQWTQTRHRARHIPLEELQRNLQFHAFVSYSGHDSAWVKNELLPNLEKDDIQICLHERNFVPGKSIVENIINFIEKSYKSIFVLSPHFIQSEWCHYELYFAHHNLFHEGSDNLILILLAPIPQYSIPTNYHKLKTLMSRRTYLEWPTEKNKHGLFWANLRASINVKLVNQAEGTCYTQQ
The experiment in a line: TLR multiplex sensor, EIS film resistance before/after exposure (Example 5), TLR1 sensor. The format is binding. The settings on record: exposure 20 minutes. The procedure:
For each multiplex TLR sensor, 5 separate gold electrodes were used for binding TLR 1 to 5. The 5 modified electrodes/sensors were exposed to the analyte solution and evaluated one by one using potentiostats and electrochemical cells.
The preparation of each TLR biosensor was evaluated using EIS. It is understood that cyclic voltammetry as well as electrochemical impedance microscopy can also be used for monitoring the modification. […] Ethanolamine was then applied to deactivate unreacted LPA. Due to dissociation of unspecific absorbed TLR, the Rct dropped slightly. Experimental curves were evaluated using a model to obtain the Rct values, which can be seen at FIG. 9. Measurements from at least triplicated samples prepared were used to obtain statistic information.
The TLR1 sensor was exposed to an E. coli K12 whole-cell buffer solution for 20 minutes. The sensor was then removed, washed thoroughly and characterized in the electrochemical cell measuring the Rct again. The difference in Rct before and after exposure is the response triggered by the target. The same protocol was carried out for all remaining TLRs (TLRs 2-5) to obtain one set of pattern for E. coli K12 (FIGS. 10b to 10e). Multiple sets were investigated for statistical relevance. […]

Another assay concerns the target T2, rmTLR5 (Mus musculus, UniProt Q9JLF7).
T2 construct: purchased
As to the kind of experiment: Selectivity test, TLR5 sensor, EIS. The format is binding. Conditions: 10 μM. The procedure:
TLR sensors were prepared using fresh, cleaned gold electrodes. The electrodes were immersed in a 2 mM 1-lipoic acid n-hydroxysuccinimide ester (LPA) ethanol solution for 48 hours at 277 K. The electrodes were then rinsed thoroughly using absolute ethanol and blown dry under nitrogen before incubation in 200 μg/ml rmTLR1, 200 μg/ml rmTLR2 and 200 μg/ml ‘rmTLR1 and 2’ mixture for 72 hours at 277 K. The rmTLR1 and 2 mixture was prepared by mixing 200 μg/ml rmTLR1 and 200 μg/ml rmTLR2 with a volume ratio of 1:1. The final concentration of each component was 100 μg/ml and the total concentration of the combined TLR protein content was 200 μg/ml. Following the supplier's recommended conditions, all TLRs were prepared in PBS buffer (pH˜7.4). The electrodes were rinsed with an excess volume of Milli-Q water and blown dry under nitrogen. An ethanolamine-tris buffer solution was prepared by dissolving 1.2 g of ethanolamine and 0.121 g of Tris base in 20 mL of water, the pH was adjusted to 8.4 using hydrochloric acid. […]
All electrochemical measurements were carried out using a cell with a three-electrode configuration in an enclosed Faraday cage. […] The experimental EIS curves were evaluated to determine the film resistance using ZSimpWin 2.0 software. […]

T2 sequence (Q9JLF7 27-859): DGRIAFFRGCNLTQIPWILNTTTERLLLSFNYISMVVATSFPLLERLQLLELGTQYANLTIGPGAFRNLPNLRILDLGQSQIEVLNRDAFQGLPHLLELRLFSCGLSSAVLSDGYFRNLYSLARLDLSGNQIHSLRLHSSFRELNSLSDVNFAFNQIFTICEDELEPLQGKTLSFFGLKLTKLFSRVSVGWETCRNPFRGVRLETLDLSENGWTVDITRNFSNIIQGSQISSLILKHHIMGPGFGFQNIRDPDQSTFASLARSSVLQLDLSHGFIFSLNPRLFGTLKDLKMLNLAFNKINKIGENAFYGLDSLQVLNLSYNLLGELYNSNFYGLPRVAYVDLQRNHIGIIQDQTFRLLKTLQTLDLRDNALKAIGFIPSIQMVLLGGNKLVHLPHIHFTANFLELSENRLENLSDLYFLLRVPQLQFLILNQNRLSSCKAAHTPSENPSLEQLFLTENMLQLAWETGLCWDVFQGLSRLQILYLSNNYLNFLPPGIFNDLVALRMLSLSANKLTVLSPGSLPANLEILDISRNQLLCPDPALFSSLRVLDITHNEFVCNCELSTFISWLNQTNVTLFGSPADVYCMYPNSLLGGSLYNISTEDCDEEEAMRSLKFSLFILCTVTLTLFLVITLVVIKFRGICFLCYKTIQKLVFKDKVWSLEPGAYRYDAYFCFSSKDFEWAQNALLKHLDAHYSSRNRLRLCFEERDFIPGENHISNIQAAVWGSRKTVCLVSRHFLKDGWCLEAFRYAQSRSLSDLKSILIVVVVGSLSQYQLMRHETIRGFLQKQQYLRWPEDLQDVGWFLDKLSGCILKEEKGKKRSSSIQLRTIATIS

For the substance Pam3CSK4, on TLR1, the “delta Rct %” value is on record as 20%. The “electrochemical response (selectivity test)” value at rmTLR5 is given as “slight signal variations”.
